For assay [1], the system named is microorganisms with acquired resistance. In words: microbe, parasite or virus in culture. It is filed as cell-based.
The subject of assay [2] is inherently resistant microorganisms. In words: microbe, parasite or virus in culture. It is filed as cell-based.
The mark [3] stands for this setting: Staphylococcus haemolyticus, read-out: MIC alone (antibiotic agent), S. haemolyticus.

Values after ≈ are worked out from the molar mass of the structure shown. Read-outs that look alike come from different tables or passages of the source.

As to `CC[C@H]1OC(=O)[C@H](C)[C@@H](O[C@H]2C[C@@](C)(OC)[C@@H](O)[C@H](C)O2)[C@H](C)[C@@H](O[C@@H]2O[C@H](C)C[C@H](N(C)C)[C@H]2O)[C@](C)(O)C[C@@H](C)C(=O)[C@H](C)[C@@H](O)[C@]1(C)O` [Erythromycin], the MIC was 8 µg/mL (≈ 10.9 µM) in assay [1] (Staphylococcus aureus, read-out: MIC alone (antibiotic agent), S. aureus); 8 µg/mL (≈ 10.9 µM) in assay [1] (Staphylococcus epidermidis, read-out: MIC alone (antibiotic agent), S. epidermidis); 8 µg/mL (≈ 10.9 µM) in assay [1] (setting [3]); 1 µg/mL in assay [2] (Acinetobacter calcoaceticus, read-out: Erythromycin MIC + MBI 26, A. calcoaceticus AC001); 0.25 µg/mL in assay [2] (Klebsiella pneumoniae, read-out: Erythromycin MIC + MBI 26, K. pneumoniae KP001); 0.5 µg/mL in assay [2] (Klebsiella pneumoniae, read-out: Erythromycin MIC + MBI 26, K. pneumoniae KP002). Besides, the MIC in assay [2] (Klebsiella pneumoniae, read-out: Erythromycin MIC Alone, K. pneumoniae KP002) is 256 µg/mL (≈ 349 µM); in assay [2] (Pseudomonas aeruginosa, read-out: Erythromycin MIC + MBI 26, P. aeruginosa PA041) it was 4 µg/mL; in assay [2] (Pseudomonas aeruginosa, read-out: Erythromycin MIC Alone, P. aeruginosa PA041), 128 µg/mL (≈ 174 µM).

In the case of KKWWRRVLKGLSSGPALSNV [MBI 21A10], the “Peptide MIC” value in assay [1] (S. aureus, combination with Mupirocin, in µg/mL) was determined as 32.

As to `CC(C)(O/N=C(\C(=O)N[C@@H]1C(=O)N2C(C(=O)[O-])=C(C[n+]3ccccc3)CS[C@H]12)c1csc(N)n1)C(=O)O` [Ceftazidime], the “MIC comb. (antibiotic agent)” value was 2 µg/mL (≈ 3.66 µM) in assay [1] (A. calcoaceticus, with MBI 26); 2 µg/mL (≈ 3.66 µM) in assay [1] (A. calcoaceticus, with MBI 29); 16 µg/mL (≈ 29.3 µM) in assay [1] (P. aeruginosa, with MBI 29). Further, the MIC in assay [1] (Acinetobacter calcoaceticus, read-out: MIC alone (antibiotic agent), A. calcoaceticus) was 32 µg/mL (≈ 58.5 µM); in assay [1] (Pseudomonas aeruginosa, read-out: MIC alone (antibiotic agent), P. aeruginosa) it was 64 µg/mL (≈ 117 µM).

For `COc1cccc(OC)c1C(=O)N[C@@H]1C(=O)N2[C@@H]1SC(C)(C)[C@@H]2C(=O)O` [Methicillin], in assay [1] (S. haemolyticus, with MBI 26), the “MIC comb. (antibiotic agent)” value was 0.25 µg/mL (≈ 0.657 µM). Also, the MIC in assay [1] (setting [3]) came out at 64 µg/mL (≈ 168 µM).

These data come from US20020035061A1, “COMPOSITIONS AND METHODS FOR TREATING INFECTIONS USING CATIONIC PEPTIDES ALONE OR IN COMBINATION WITH ANTIBIOTICS” (priority 1996, published 2002).
